Where two headings read alike, the source gives them in different places.
Tests used:
[1] = biological target: T1, p97 WT (Homo sapiens, UniProt P55072); assay: ATPase activity assay, recombinant p97 WT; type: biochemical
[2] = biological target: T2, p97 A530T (Homo sapiens, UniProt P55072, A530T); assay: ATPase activity assay, recombinant p97 A530T; type: biochemical
[3] = biological target: T1, p97 WT; assay: TR-FRET binding assay
[4] = biological target: T2, p97 A530T; assay: TR-FRET binding assay; settings: for increase in apparent Kd for A530T: A530T versus WT
[5] = tested on: HCT116 873-R and 873-S cells; assay: Cell viability; type: cell-based
[6] = tested on: HCT116 cells engineered with p97 A530T; assay: Cell viability; type: cell-based; settings: homozygous A530T
[7] = biological target: T3, p97 complexes in HCT116 cells (Homo sapiens, UniProt P55072); assay: Immunoblot of p97 immunoprecipitated from inhibitor-treated cells; type: cell-based; settings: for increase in UFD1/NPL4 binding to p97 relative to control: inhibitor concentrations causing similar CHOP and ATF4 induction
Target sequence in this assay (P55072 2-806 limits assumed, one chain of several): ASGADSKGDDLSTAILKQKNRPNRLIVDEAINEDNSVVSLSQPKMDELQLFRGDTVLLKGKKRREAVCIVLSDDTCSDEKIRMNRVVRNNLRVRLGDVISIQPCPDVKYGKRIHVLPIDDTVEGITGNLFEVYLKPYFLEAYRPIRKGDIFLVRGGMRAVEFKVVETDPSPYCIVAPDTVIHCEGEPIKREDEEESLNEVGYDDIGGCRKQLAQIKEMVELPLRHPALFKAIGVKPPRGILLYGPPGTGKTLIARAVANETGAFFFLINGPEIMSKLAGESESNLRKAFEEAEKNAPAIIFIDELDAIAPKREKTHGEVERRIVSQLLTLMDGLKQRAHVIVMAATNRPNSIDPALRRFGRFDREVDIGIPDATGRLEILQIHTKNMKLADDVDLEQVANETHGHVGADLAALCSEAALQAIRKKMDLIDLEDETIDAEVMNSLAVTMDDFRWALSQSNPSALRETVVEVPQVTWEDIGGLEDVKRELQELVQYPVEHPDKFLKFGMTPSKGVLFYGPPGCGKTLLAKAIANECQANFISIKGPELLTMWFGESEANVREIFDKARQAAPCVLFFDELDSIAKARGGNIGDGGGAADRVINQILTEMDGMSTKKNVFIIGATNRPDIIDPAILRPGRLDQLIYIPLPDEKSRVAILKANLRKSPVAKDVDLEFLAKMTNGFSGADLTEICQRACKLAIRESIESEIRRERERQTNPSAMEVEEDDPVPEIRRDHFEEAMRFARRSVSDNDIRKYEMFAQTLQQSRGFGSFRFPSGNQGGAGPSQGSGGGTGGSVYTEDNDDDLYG

[8] = biological target: T3, p97 complexes in HCT116 cells; assay: LC-MS/MS analysis of p97 complexes purified from inhibitor-treated cells; type: cell-based; settings: HCT116, 5 µM NMS-873, 6 hours, LC-MS/MS spectrum count
Target sequence in this assay (P55072 whole entry, one chain of several): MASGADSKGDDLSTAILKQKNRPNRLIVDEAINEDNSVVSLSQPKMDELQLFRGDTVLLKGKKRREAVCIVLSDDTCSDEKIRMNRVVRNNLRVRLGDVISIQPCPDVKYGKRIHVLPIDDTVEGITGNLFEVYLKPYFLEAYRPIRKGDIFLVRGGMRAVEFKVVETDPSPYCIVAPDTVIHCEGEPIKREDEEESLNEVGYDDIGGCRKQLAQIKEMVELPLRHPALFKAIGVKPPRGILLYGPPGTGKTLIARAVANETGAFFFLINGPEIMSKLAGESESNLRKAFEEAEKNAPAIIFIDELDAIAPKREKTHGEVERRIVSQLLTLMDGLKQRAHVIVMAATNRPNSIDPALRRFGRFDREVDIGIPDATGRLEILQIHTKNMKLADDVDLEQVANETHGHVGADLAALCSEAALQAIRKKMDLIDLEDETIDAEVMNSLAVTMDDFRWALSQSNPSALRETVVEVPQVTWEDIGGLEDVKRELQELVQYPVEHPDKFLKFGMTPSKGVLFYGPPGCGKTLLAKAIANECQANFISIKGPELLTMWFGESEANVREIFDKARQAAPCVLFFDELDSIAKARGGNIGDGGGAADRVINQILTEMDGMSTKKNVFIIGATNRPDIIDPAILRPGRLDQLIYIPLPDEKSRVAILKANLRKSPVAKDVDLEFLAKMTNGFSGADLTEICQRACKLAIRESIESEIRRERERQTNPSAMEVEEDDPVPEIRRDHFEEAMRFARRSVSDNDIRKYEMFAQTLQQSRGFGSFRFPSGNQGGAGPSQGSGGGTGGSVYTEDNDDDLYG

[9] = tested on: CHOP, ATF4 and polyubiquitin in HCT116 cells; assay: Immunoblot of biomarkers of p97 inhibition; type: cell-based; settings: 6 hours
[10] = HCT116, 1 hour, concentration dependent, immunoblot
[11] = HCT116, after washout of 5 µM NMS-873 (120 minutes)

T2 sequence (P55072 whole entry A530T): as the sequence (P55072 whole entry, one chain of several) above, with A530T counted along it
T1 sequence (P55072 whole entry): as the sequence (P55072 whole entry, one chain of several) above

For `Nc1ncnc2c1ncn2[C@@H]1O[C@H](COP(=O)(O)OP(=O)(O)O)[C@@H](O)[C@H]1O` [ADP], the “fold less sensitive to ADP than ATP-γ-S” value ([1]; WT ATPase activity) was 18 fold, the IC50 ([1]; read-out: IC50 ATPase activity, WT p97) was 4500 nM and the “fold less sensitive to ADP than ATP-γ-S” value ([2]; A530T ATPase activity) was 3.7 fold. For the same molecule, the IC50 ([2]; read-out: IC50 ATPase activity, A530T p97) was 24.6 µM, the Kd ([3]; read-out: apparent Kd, WT p97, TR-FRET, non-linear regression) was 600 nM and the “increase in apparent Kd for A530T” value [4] was 5- to 6 fold. For the same molecule, the Kd ([4]; read-out: apparent Kd, A530T p97, TR-FRET) was 3800 nM.

`Nc1ncnc2c1ncn2[C@@H]1O[C@H](CO[P@](=O)(O)O[P@](=O)(O)O[P@@](=O)(O)S)[C@@H](O)[C@H]1O` [ATP-γ-S] was tested, and the IC50 [1] was 247 nM, the IC50 [2] was 6.6 µM and the Kd [3] was 25 nM. For the same molecule, the Kd [4] was 140 nM and the “increase in apparent Kd for A530T” value [4] was 5- to 6 fold.

`Cc1cc2c(C(N)=O)cccc2n1-c1nc2c(c(NCc3ccccc3)n1)COCC2` [CB-5083] was tested, and the “sensitivity of 873-R compared with 873-S cells” value [5] was “similarly sensitive” and the “sensitivity of engineered A530T cells” value [6] was “remained sensitive”.

For `c1ccc(CNc2nc(NCc3ccccc3)c3ccccc3n2)cc1` [DBeQ], the “increase in UFD1/NPL4 binding to p97 relative to control” value ([7]; HCT116, 1 hour) was “up to 2.1 fold” and the “sensitivity of 873-R compared with 873-S cells” value [5] was “similarly sensitive”.

In the case of `O[C@@H](CS)[C@@H](O)CS` [DTT], the “sensitivity of 873-R compared with 873-S cells” value [5] is reported as “similarly sensitive”.

`CC1(C)C(N(O)C(=O)Nc2ccc(Cl)cc2)N(c2ccc(Cl)cc2)C(=O)N1CC(=O)N/N=C/C=C/c1ccc([N+](=O)[O-])o1` (stereo not drawn) [EerI, Eeyarestatin I] was tested, and the “increase in UFD1/NPL4 binding to p97 relative to control” value ([7]; HCT116, 1 hour) was “up to 2.1 fold” and the “sensitivity of 873-R compared with 873-S cells” value [5] was “similarly sensitive”.

With `Cc1cc(OCc2nnc(SC3CCCC3)n2-c2cccnc2)ccc1-c1ccc(S(C)(=O)=O)cc1` [NMS-873] the “increase in ubiquitin bound to p97” value [8] was 15 fold, the “increase in UFD1 and NPL4 bound to p97” value [7, 10] was 12- to 15 fold and the “increase in p47 bound to p97” value [7, 10] was 2.5 fold. The “t1/2 of decrease of NPL4 binding to p97 during recovery” value [7, 11] was 17 min, the “t1/2 of decrease of UFD1 binding to p97 during recovery” value [7, 11] was 13 min and the “induction of CHOP, ATF4 and polyubiquitin in 873-R compared with 873-S cells” value ([9]; NMS-873 2 and 5 µM, CB-5083 0.3 and 2.5 µM) was “diminished responses”. For the same molecule, the “induction of CHOP, ATF4 and polyubiquitin in engineered A530T cells” value ([9]; HDR cells homozygous for A530T) was “diminished induction”.

For `CC(C)C[C@H](NC(=O)[C@H](Cc1ccccc1)NC(=O)c1cnccn1)B(O)O` [bortezomib], the “sensitivity of 873-R compared with 873-S cells” value [5] was “similarly sensitive”.

With `C[C@H]1CCC/C=C/[C@@H]2C[C@H](O)C[C@H]2[C@H](O)/C=C/C(=O)O1` [brefeldin A] the “sensitivity of 873-R compared with 873-S cells” value [5] was “similarly sensitive”.

For `CC(C)C[C@H](NC(=O)[C@H](CCc1ccccc1)NC(=O)CN1CCOCC1)C(=O)N[C@@H](Cc1ccccc1)C(=O)N[C@@H](CC(C)C)C(=O)[C@@]1(C)CO1` [carfilzomib], the “sensitivity of 873-R compared with 873-S cells” value [5] was “similarly sensitive”.

NMS-859 was tested, and the “increase in UFD1/NPL4 binding to p97 relative to control” value ([7]; HCT116, 1 hour) was “up to 2.1 fold” and the “sensitivity of 873-R compared with 873-S cells” value [5] was “similarly sensitive”.

In the case of tunicamycin, the “sensitivity of 873-R compared with 873-S cells” value [5] is reported as “similarly sensitive”.

B1: p47: recombinant p97 cofactor protein with N-terminal hexahistidine tag (protein)
chain: MAAERQEALREFVAVTGAEEDRARFFLESAGWDLQIALASFYEDGGDEDIVTISQATPSSVSRGTAPSDNRVTSFRDLIHDQDEDEEEEEGQRFYAGGSERSGQQIVGPPRKKSPNELVDDLFKGAKEHGAVAVERVTKSPGETSKPRPFAGGGYRLGAAPEEESAYVAGEKRQHSSQDVHVVLKLWKSGFSLDNGELRSYQDPSNAQFLESIRRGEVPAELRRLAHGGQVNLDMEDHRDEDFVKPKGAFKAFTGEGQKLGSTAPQVLSTSSPAQQAENEAKASSSILIDESEPTTNIQIRLADGGRLVQKFNHSHRISDIRLFIVDARPAMAATSFILMTTFPNKELADESQTLKEANLLNAVIVQRLT
modifications: left off: His6, N-terminal, state not stated
B1 was tested, and the “cofactor concentration of maximum inhibition of ATPase activity” value ([1]; WT p97, biphasic response, recovery at 200 nM) was 3.1 nM.

Source: publication PMC4841942 (Cell chemical biology, 2016)
